{
  "source": "patent US20220354806A1",
  "about": "“COMPOSITION FOR IMPROVING MEMORY” (BGG JAPAN CO., LTD., priority 2019, published 2022)",
  "origin": "cited, not measured here",
  "key": {"[1]": {"conditions": "greater than that of a vitamin E"}, "[2]": {"conditions": "after ingesting compared with before ingesting; no placebo comparison"}, "[3]": {"conditions": "placebo group ingesting corn oil"}},
  "data": [
    {"smiles": "CC1=C(/C=C/C(C)=C/C=C/C(C)=C/C=C/C=C(C)/C=C/C=C(C)/C=C/C2=C(C)C(=O)C(O)CC2(C)C)C(C)(C)CC(O)C1=O", "note": "(stereo not drawn) [astaxanthin, 3,3′-dihydroxy-β,β-carotene-4,4′-dione]", "values": [
      {"measurement": "anti-oxidation effect relative to vitamin E", "setting": "[1]", "result": 1000, "unit": "times"},
      {"measurement": "correct answer rate in the operation of the \"working memory\"", "setting": "[2]", "result": "improved"},
      {"measurement": "response time of all 5 operations (simple reaction, choice reaction, working memory, delayed recall, divided attention)", "setting": "[2]", "result": "improved"},
      {"measurement": "improvement effect on the human cognitive function, astaxanthin group vs placebo group", "setting": "[3]", "result": "a significant difference of the improvement effect on the human cognitive function is not confirmed"}
    ]}
  ]
}
